Type in all cases: cell-based, human
Assay [1] concerns lung cancer cell line A549. Briefly: MTT cytotoxicity assay, A549. As to conditions: A549 cells, 8000 cells/well, 24 h incubation with compound, absorbance 490 nm, read-out: IC50 (μmol/L) A549. From the text:
(§1) A small library derived from 6a–b, 9 and 10a–c was obtained by hydrolysis of the macrocycles and condensation with amines. The anti-tumor activities for lung cancer cell line A549, breast cancer cell line MDA-MB-231 and hepatocarcinoma cell line Hep G2 of all these new compounds were screened in vitro by an MTT assay. Most of the compounds show some inhibitory activities against A549, MDA-MB-231 and Hep G2. […] In the future, further structure–activity relationship studies will be performed to determine how the substituents affected the anti-tumor activity and to design the best chemical structure in the future.
(§2) The human lung cancer cell line A549, breast cancer cell line MDA-MB-231 and hepatocarcinoma cell line Hep G2 were cultured in Dulbecco’s modified Eagle’s medium (DMEM) supplemented with antibiotics (penicillin 50 U/mL; streptomycin 50 µg/mL) and 10% FCS. The incubation was at 37 °C in a humidified atmosphere of 5% CO2 in air before experiments. Cells were first seeded at a density of 8000 cells/well in a 96-well plate for 48 hours. Solutions containing respective concentrations of compounds were added into wells and incubation continued for another 24 hours. After that, the MTT (3-(4,5-dimethylthiazol-2-yl)-2,5-diphenyltetrazolium bromide) dye stock solution (10 μL, 5 mg/mL) was added to each well. After 4 h, the supernatant was removed and DMSO (100 μL) was added to solubilize the MTT. The absorbance was measured at a wave length of 490 nm (A490nm) on an ELISA microplate reader. Results were expressed as IC50 values.
(Tetrazolium assays rely on reduction of a dye to a coloured formazan, in cell work by metabolically active cells.)

Assay [2] relates to breast cancer cell line MDA-MB-231. Briefly: MTT cytotoxicity assay, MDA-MB-231. The following applies: MDA-MB-231 cells, 8000 cells/well, 24 h incubation with compound, absorbance 490 nm, read-out: IC50 (μmol/L) MDA-MB-231.
Description: as §1, §2

The subject of assay [3] is hepatocarcinoma cell line Hep G2. Briefly: MTT cytotoxicity assay, Hep G2. The following applies: 8000 cells/well, 24 h incubation with compound, absorbance 490 nm, read-out: IC50 (μmol/L) Hep G2.
Description: as §1, §2

The mark [4] stands for this setting: Homo sapiens, HepG2, Hep G2 cells.

Like-named read-outs stand apart in the source and are kept apart here.

On to `O=C(O)[C@@H]1C[C@@H]2CN1C(=O)c1cccc(c1)OCCCCCCO2` [Compound 42, (10R,12S)-14-Oxo-2,9-dioxa-13-aza-tricyclo[13.3.1.1^10,13]eicosane-1(19),15,17-triene-12-carboxylic acid], for which the IC50 in assay [1] (Homo sapiens) is > 100 µmol/L; in assay [2] (Homo sapiens), > 100 µmol/L; in assay [3] (setting [4]), 87.4 µmol/L.

On to `NC(=O)[C@@H]1C[C@@H]2CN1C(=O)c1cccc(c1)OCCCCCCO2` [Compound 43, (10R,12S)-14-Oxo-2,9-dioxa-13-aza-tricyclo[13.3.1.1^10,13]eicosane-1(19),15,17-triene-12-carboxamide], for which the IC50 was 69.7 µmol/L in assay [1] (Homo sapiens), 66 µmol/L in assay [2] (Homo sapiens) and 64.9 µmol/L in assay [3] (setting [4]).

For `CC(C)CNC(=O)[C@@H]1C[C@@H]2CN1C(=O)c1cccc(c1)OCCCCCCO2` [Compound 45, (10R,12S)-14-oxo-N-Isobutyl-2,9-dioxa-13-aza-tricyclo[13.3.1.1^10,13]eicosane-1(19),15,17-triene-12-carboxamide], the IC50 was found to be 93.6 µmol/L in assay [1] (Homo sapiens), 88.7 µmol/L in assay [2] (Homo sapiens) and 89.6 µmol/L in assay [3] (setting [4]).

Take `CC(C)CNC(=O)[C@@H]1C[C@@H]2CN1C(=O)c1cccc(c1)OCCn1cc(nn1)CO2` [Compound 25, (11R,13S)-15-Oxo-N-isobutyl-2,10-dioxa-5,6,7,14-tetraaza-tetracyclo[14.3.1.1^5,8.1^11,14]docosane-6,8(21),1(20),16,18-pentaene-13-carboxamide]: the IC50 was 37.7 µmol/L in assay [1], 42.5 µmol/L in assay [2] and 48.3 µmol/L in assay [3] (Hep G2 cells).

Consider `NC(=O)[C@@H]1C[C@@H]2CN1C(=O)c1cccc(c1)OCCn1nncc1CO2` [Compound 27, (12R,14S)-16-Oxo-2,11-dioxa-5,6,7,15-tetraaza-tetracyclo[15.3.1.1^12,15.0^5,9]docosane-6,8,1(21),17,19-pentaene-14-carboxamide], for which the values for the IC50 in assay [1] (Homo sapiens), in assay [2] (Homo sapiens) and in assay [3] (setting [4]) were 41.3 µmol/L, 28 µmol/L and 34.7 µmol/L, respectively.

Turning to `NC(=O)[C@@H]1C[C@@H]2CN1C(=O)c1cccc(c1)OCCn1cc(nn1)CO2` [Compound 23, (11R,13S)-15-Oxo-2,10-dioxa-5,6,7,14-tetraaza-tetracyclo[14.3.1.1^5,8.1^11,14]docosane-6,8(21),1(20),16,18-pentaene-13-carboxamide], the IC50 in assay [1] was determined as 26.8 µmol/L; in assay [2], 29.9 µmol/L; in assay [3] (Hep G2 cells), 37.3 µmol/L.

Regarding `O=C(O)[C@@H]1C[C@@H]2CN1C(=O)c1cccc(c1)OCCCCO2` [Compound 34, (8R,10S)-12-Oxo-2,7-dioxa-11-aza-tricyclo[11.3.1.1^8,11]octadecane-1(17),13,15-triene-10-carboxylic acid], the figures for the IC50 in assay [1] (Homo sapiens), in assay [2] (Homo sapiens) and in assay [3] (setting [4]) were > 100 µmol/L, 96.2 µmol/L and 96.2 µmol/L, respectively.

Consider `CC(C)CNC(=O)[C@@H]1C[C@@H]2CN1C(=O)c1cccc(c1)OCCn1nncc1CO2` [Compound 29, (12R,14S)-16-Oxo-N-isobutyl-2,11-dioxa-5,6,7,15-tetraaza-tetracyclo[15.3.1.1^12,15.0^5,9]docosane-6,8,1(21),17,19-pentaene-14-carboxamide], for which the values for the IC50 in assay [1] (Homo sapiens), in assay [2] (Homo sapiens) and in assay [3] (setting [4]) were 32.2 µmol/L, 43.2 µmol/L and 37.3 µmol/L, respectively.

As for `O=C(O)[C@@H]1C[C@@H]2CN1C(=O)c1cccc(c1)OCCn1nncc1CO2` [Compound 26, (12R,14S)-16-Oxo-2,11-dioxa-5,6,7,15-tetraaza-tetracyclo[15.3.1.1^12,15.0^5,9]docosane-6,8,1(21),17,19-pentaene-14-carboxylic acid], the IC50 in assay [1] (Homo sapiens) was determined as 37.1 µmol/L; in assay [2] (Homo sapiens), 34.3 µmol/L; in assay [3] (setting [4]), 44.9 µmol/L.

On to `O=C(Nc1ccccc1)[C@@H]1C[C@@H]2CN1C(=O)c1cccc(c1)OC/C=C\CO2` [Compound 32, (4Z,8R,10S)-12-Oxo-N-phenyl-2,7-dioxa-11-aza-tricyclo[11.3.1.1^8,11]octadecane-4,1(17),13,15-tetraene-10-carboxamide], for which the IC50 was 4.76 µmol/L in assay [1] (Homo sapiens), 9.67 µmol/L in assay [2] (Homo sapiens) and 26.3 µmol/L in assay [3] (setting [4]).

With `CC(C)CNC(=O)[C@@H]1C[C@@H]2CN1C(=O)c1cccc(c1)OC/C=C\CO2` [Compound 33, (4Z,8R,10S)-12-Oxo-N-isobutyl-2,7-dioxa-11-aza-tricyclo[11.3.1.1^8,11]octadecane-4,1(17),13,15-tetraene-10-carboxamide], the IC50 in assay [1] (Homo sapiens) amounted to 2.55 µmol/L; in assay [2] (Homo sapiens), 11.9 µmol/L; in assay [3] (setting [4]), 41.1 µmol/L.

In the case of `NC(=O)[C@@H]1C[C@@H]2CN1C(=O)c1cccc(c1)OCCCCO2` [Compound 35, (8R,10S)-12-Oxo-2,7-dioxa-11-aza-tricyclo[11.3.1.1^8,11]octadecane-1(17),13,15-triene-10-carboxamide], the results for the IC50 in assay [1] (Homo sapiens), in assay [2] (Homo sapiens) and in assay [3] (setting [4]) were 89.5 µmol/L, 90.5 µmol/L and 91.5 µmol/L, respectively.

As for `O=C(Nc1ccccc1)[C@@H]1C[C@@H]2CN1C(=O)c1cccc(c1)OCCn1cc(nn1)CO2` [Compound 24, (11R,13S)-15-Oxo-N-phenyl-2,10-dioxa-5,6,7,14-tetraaza-tetracyclo[14.3.1.1^5,8.1^11,14]docosane-6,8(21),1(20),16,18-pentaene-13-carboxamide], the IC50 in assay [1] was determined as 45.7 µmol/L; in assay [2], 35.6 µmol/L; in assay [3] (Hep G2 cells), 46.3 µmol/L.

Consider `O=C(O)[C@@H]1C[C@@H]2CN1C(=O)c1cccc(c1)OCCn1cc(nn1)CO2` [Compound 22, (11R,13S)-15-Oxo-2,10-dioxa-5,6,7,14-tetraaza-tetracyclo[14.3.1.1^5,8.1^11,14]docosane-6,8(21),1(20),16,18-pentaene-13-carboxylic acid], for which the values for the IC50 in assay [1], in assay [2] and in assay [3] (Hep G2 cells) were 32.2 µmol/L, 45.1 µmol/L and 44.2 µmol/L, respectively.

With `O=C(Nc1ccccc1)[C@@H]1C[C@@H]2CN1C(=O)c1cccc(c1)OCCCCCCO2` [Compound 44, (10R,12S)-14-Oxo-N-phenyl-2,9-dioxa-13-aza-tricyclo[13.3.1.1^10,13]eicosane-1(19),15,17-triene-12-carboxamide], the IC50 in assay [1] (Homo sapiens) turned out to be 98.2 µmol/L; in assay [2] (Homo sapiens) it was 23.1 µmol/L; in assay [3] (setting [4]), 88.1 µmol/L.

Consider `CC(C)CNC(=O)[C@@H]1C[C@@H]2CN1C(=O)c1cccc(c1)OCCCCCO2` [Compound 41, (9R,11S)-13-Oxo-N-isobutyl-2,8-dioxa-12-aza-tricyclo[12.3.1.1^9,12]nonadecane-1(18),14,16-triene-11-carboxamide], for which the IC50 in assay [1] (Homo sapiens) was 34.9 µmol/L; in assay [2] (Homo sapiens), 47.3 µmol/L; in assay [3] (setting [4]) it was > 100 µmol/L.

Take `N.N.[Cl][Pt][Cl]` [Cisplatin, reference compound]: the IC50 in assay [1] came out at 15.4 µmol/L; in assay [2], 19.7 µmol/L; in assay [3] (Hep G2 cells), 17.4 µmol/L.

`O=C(Nc1ccccc1)[C@@H]1C[C@@H]2CN1C(=O)c1cccc(c1)OCCCCCO2` [Compound 40, (9R,11S)-13-Oxo-N-phenyl-2,8-dioxa-12-aza-tricyclo[12.3.1.1^9,12]nonadecane-1(18),14,16-triene-11-carboxamide]: the IC50 in assay [1] (Homo sapiens) came to 88 µmol/L; in assay [2] (Homo sapiens) it was 76.4 µmol/L; in assay [3] (setting [4]) it was 68.4 µmol/L.

Turning to `O=C(O)[C@@H]1C[C@@H]2CN1C(=O)c1cccc(c1)OC/C=C\CO2` [Compound 30, (4Z,8R,10S)-12-Oxo-2,7-dioxa-11-aza-tricyclo[11.3.1.1^8,11]octadecane-4,1(17),13,15-tetraene-10-carboxylic acid], the IC50 in assay [1] (Homo sapiens) came out at 11.2 µmol/L; in assay [2] (Homo sapiens) it was 10.3 µmol/L; in assay [3] (setting [4]), 23.2 µmol/L.

Consider `CC(C)CNC(=O)[C@@H]1C[C@@H]2CN1C(=O)c1cccc(c1)OCCCCO2` [Compound 37, (8R,10S)-12-Oxo-N-isobutyl-2,7-dioxa-11-aza-tricyclo[11.3.1.1^8,11]octadecane-1(17),13,15-triene-10-carboxamide], for which the IC50 in assay [1] (Homo sapiens) stood at 77.9 µmol/L; in assay [2] (Homo sapiens), 86.3 µmol/L; in assay [3] (setting [4]), 73.1 µmol/L.

Take `O=C(Nc1ccccc1)[C@@H]1C[C@@H]2CN1C(=O)c1cccc(c1)OCCCCO2` [Compound 36, (8R,10S)-12-Oxo-N-phenyl-2,7-dioxa-11-aza-tricyclo[11.3.1.1^8,11]octadecane-1(17),13,15-triene-10-carboxamide]: the results for the IC50 in assay [1] (Homo sapiens), in assay [2] (Homo sapiens) and in assay [3] (setting [4]) were 54.3 µmol/L, 85.3 µmol/L and 95.4 µmol/L, respectively.

As for `O=C(Nc1ccccc1)[C@@H]1C[C@@H]2CN1C(=O)c1cccc(c1)OCCn1nncc1CO2` [Compound 28, (12R,14S)-16-Oxo-N-phenyl-2,11-dioxa-5,6,7,15-tetraaza-tetracyclo[15.3.1.1^12,15.0^5,9]docosane-6,8,1(21),17,19-pentaene-14-carboxamide], the figures for the IC50 in assay [1] (Homo sapiens), in assay [2] (Homo sapiens) and in assay [3] (setting [4]) were 46.3 µmol/L, 43.7 µmol/L and 36.3 µmol/L, respectively.

For the origin of these results see publication PMC6274554, “Synthetic Strategy and Anti-Tumor Activities of Macrocyclic Scaffolds Based on 4-Hydroxyproline” (Molecules, 2016).
